Results from paper PMC6451126 (2019).

What was measured:
[1] = test system: KRAS (DNA, G4) AGGGCGGTGTGGGAAGAGGGAAGAGGGGGAGG; assay: RLS intensity ratio; Job plot; conditions: 50 mM KCl; 20 mM Tris-HCl pH 7.4, 1 mM Na2EDTA, 5 µM porphyrin
[2] = test system: Hum24 (DNA, G4) TTAGGGTTAGGGTTAGGGTTAGGG; assay: RLS intensity ratio; conditions: 50 mM KCl; 20 mM Tris-HCl pH 7.0, 1 mM Na2EDTA, 5 µM porphyrin, 10 µM DNA
[3] = test system: C-MYC (DNA, G4) TGAGGGTGGGGAGGGTGGGGAA; assay: RLS intensity ratio; conditions: 50 mM KCl; 20 mM Tris-HCl pH 7.0, 1 mM Na2EDTA, 5 µM porphyrin, 10 µM DNA
[4] = test system: AS1411 (DNA, G4) GGTGGTGGTGGTTGTGGTGGTGGTGG; assay: RLS intensity ratio; conditions: 50 mM KCl; 20 mM Tris-HCl pH 7.0, 1 mM Na2EDTA, 5 µM porphyrin, 10 µM DNA
[5] = test system: KRAS (DNA, G4) AGGGCGGTGTGGGAAGAGGGAAGAGGGGGAGG; assay: RLS ratio I702/I652, absorption, fluorescence; Job plot; conditions: 50 mM KCl; 20 mM Tris-HCl pH 7.0, 1 mM Na2EDTA, 5 µM porphyrin
[6] = test system: Oxy28 (DNA, G4) GGGGTTTTGGGGTTTTGGGGTTTTGGGG; assay: RLS intensity ratio; conditions: 50 mM KCl; 20 mM Tris-HCl pH 7.0, 1 mM Na2EDTA, 5 µM porphyrin, 10 µM DNA
[7] = test system: CatG4 (DNA, G4) TGGGTAGGGCGGGTTGGG; assay: RLS intensity ratio; conditions: 50 mM KCl; 20 mM Tris-HCl pH 7.0, 1 mM Na2EDTA, 5 µM porphyrin, 10 µM DNA

Measured: binding

C[N+]1(CCO)CC[N+](C)(CCOc2ccc(-c3c4nc(c(-c5ccc(OCC[N+]6(C)CC[N+](C)(CCO)CC6)cc5)c5ccc([nH]5)c(-c5ccc(OCC[N+]6(C)CC[N+](C)(CCO)CC6)cc5)c5nc(c(-c6ccc(OCC[N+]7(C)CC[N+](C)(CCO)CC7)cc6)c6ccc3[nH]6)C=C5)C=C4)cc2)CC1 (stereo not shown)
yes: [1]

C[N+]1(CCOc2ccc(-c3c4nc(c(-c5ccc(OCC[N+]6(C)CCCCC6)cc5)c5ccc([nH]5)c(-c5ccc(OCC[N+]6(C)CCCCC6)cc5)c5nc(c(-c6ccc(OCC[N+]7(C)CCCCC7)cc6)c6ccc3[nH]6)C=C5)C=C4)cc2)CCCCC1
yes: [2] | [3] | [4] | [5] | [6] | [7]
